Measured values taken from patent publication US8969320B2, “Hyaluronic acid derivatives containing groups able to release NO” (Fidia Farmaceutici S.P.A., priority 2007, dated 2015).

Assay: Release Test: nitric oxide (NO) release profile by spectrophotometry (Griess test)
Type: physicochemical
Conditions: 4 mg product in 2.5 ml Griess reagent
Description: The nitric oxide (NO) release profile of the compounds of the invention was evaluated by spectrophotometry using the […]. The trend of NO release by the HA-Cys conjugate in S-nitroso form, prepared as described in example 13, is shown here by way of example. Briefly: 4 mg of the product is dissolved in 2.5 ml of Griess reagent in a UV-visible spectrophotometric cuvette. The solution is rapidly homogenised, placed in a double-beam spectrophotometer (Perkin Elmer Lambda 2), and the absorbance trend is measured at 540 nm over time against a blank consisting of Griess solution. The absorbance, i.e. the nitric oxide concentration, increases in the solution with an asymptotic trend, the plateau of which has not yet been reached 25 hrs after release. Assuming first-order kinetics, a decay constant amounting to 70 min^−1 is obtained.

In the case of “HA-Cys-S-nitric Oxide p50 Derivative (750 kDa) [Example 13]”, the “decay constant of NO release, assuming first-order kinetics” value (absorbance at 540 nm over time against Griess solution blank) is reported as 70 min⁻¹ and the “time after release at which the plateau of NO concentration (absorbance) has not yet been reached” value (absorbance at 540 nm, asymptotic trend) is reported as over 25 h.
